Measurements taken from patent publication US10342866B2, “Compositions and methods for immunotherapies comprising small molecule integrin receptor-ligand agonist adjuvants” (7 Hills Interests LLC, priority 2015, dated 2019).

Columns and labels:
α4β1 (VLA-4) = molecular target: T1, α4β1 (VLA-4) (Homo sapiens, UniProt P05556+P13612); experiment: Static cell adhesion assay, α4β1-mediated adhesion to VCAM-1; format: cell-based; settings: Jurkat cells on sub-optimal VCAM-1 coating; PBS, 1 mM MgCl2, 50% FBS; read-out: Activity (EC50) in enhancing adhesion mediated by α4β1 (VLA-4)
T1 construct: the cells expressed the appropriate integrin receptor either endogenously (Jurkat/α4β1, K562/α5β1, Jurkat (a4-)/αLβ2, HSB/αLβ2); host or cells: Jurkat
T1 sequence (P13612 34-1032): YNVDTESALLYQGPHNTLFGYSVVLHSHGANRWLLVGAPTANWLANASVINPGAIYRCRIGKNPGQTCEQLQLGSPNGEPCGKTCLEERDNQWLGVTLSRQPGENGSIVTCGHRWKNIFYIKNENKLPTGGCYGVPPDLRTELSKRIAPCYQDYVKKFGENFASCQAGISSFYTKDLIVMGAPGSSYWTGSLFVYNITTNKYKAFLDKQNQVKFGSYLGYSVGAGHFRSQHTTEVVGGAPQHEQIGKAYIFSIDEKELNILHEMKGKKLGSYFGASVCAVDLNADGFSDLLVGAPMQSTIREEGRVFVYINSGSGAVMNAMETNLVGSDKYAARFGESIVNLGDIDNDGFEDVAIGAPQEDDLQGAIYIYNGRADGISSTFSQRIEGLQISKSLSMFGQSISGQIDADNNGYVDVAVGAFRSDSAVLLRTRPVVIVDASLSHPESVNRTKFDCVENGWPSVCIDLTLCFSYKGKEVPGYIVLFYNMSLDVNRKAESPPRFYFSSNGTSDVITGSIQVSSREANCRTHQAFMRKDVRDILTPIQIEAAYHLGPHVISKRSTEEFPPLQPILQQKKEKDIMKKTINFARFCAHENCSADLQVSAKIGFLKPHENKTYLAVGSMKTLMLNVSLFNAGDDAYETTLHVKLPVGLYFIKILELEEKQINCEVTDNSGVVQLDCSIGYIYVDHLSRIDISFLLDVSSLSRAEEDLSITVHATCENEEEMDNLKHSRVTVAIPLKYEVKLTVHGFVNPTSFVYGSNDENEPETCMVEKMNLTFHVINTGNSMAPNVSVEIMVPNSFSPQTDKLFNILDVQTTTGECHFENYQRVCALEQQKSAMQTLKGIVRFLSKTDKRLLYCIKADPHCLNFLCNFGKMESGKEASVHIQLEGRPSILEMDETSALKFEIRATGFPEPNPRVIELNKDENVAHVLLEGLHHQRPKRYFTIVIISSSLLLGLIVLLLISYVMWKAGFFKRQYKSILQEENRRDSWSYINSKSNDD
T1 sequence (P05556 21-798): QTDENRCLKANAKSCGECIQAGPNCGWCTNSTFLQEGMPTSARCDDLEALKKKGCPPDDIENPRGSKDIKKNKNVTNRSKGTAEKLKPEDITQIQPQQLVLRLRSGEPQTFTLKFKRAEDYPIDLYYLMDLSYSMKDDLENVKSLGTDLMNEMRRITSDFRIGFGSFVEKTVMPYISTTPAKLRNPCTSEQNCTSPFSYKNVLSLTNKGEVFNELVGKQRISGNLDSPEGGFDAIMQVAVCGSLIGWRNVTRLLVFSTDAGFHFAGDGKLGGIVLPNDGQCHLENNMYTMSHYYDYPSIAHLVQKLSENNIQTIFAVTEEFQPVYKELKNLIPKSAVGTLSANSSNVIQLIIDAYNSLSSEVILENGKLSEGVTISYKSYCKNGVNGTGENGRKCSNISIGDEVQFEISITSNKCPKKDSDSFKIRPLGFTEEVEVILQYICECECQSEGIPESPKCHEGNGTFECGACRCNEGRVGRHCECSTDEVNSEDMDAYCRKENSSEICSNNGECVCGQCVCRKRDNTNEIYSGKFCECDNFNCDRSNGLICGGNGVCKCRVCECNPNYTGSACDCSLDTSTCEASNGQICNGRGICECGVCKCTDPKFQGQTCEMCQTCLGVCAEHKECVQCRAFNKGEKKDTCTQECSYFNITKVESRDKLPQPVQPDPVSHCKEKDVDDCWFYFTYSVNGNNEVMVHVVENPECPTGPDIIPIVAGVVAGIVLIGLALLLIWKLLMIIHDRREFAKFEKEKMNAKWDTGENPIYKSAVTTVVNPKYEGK
Procedure: (§1) For all assays described, C4 was dissolved in DMSO to make a 1 mM stock solution, and dilutions were made in assay buffer or media to yield the desired final working concentrations in 1% DMSO (vehicle). Human VCAM-1, MAdCAM-1 Fc chimera, ICAM-1, and SDF-1α were purchased from R&D Systems (Minneapolis, Minn.). Human serum fibronectin was purchased from Sigma-Aldrich (St. Louis, Mo.). The cell lines NK-92, Jurkat, K562, and HSB were obtained from American Type Culture Collection (Manassas, Va.) and were maintained in recommended culture media. The mutant Jurkat cell line not expressing α4 integrin (Jurkat [a4-]) was a gift from Dr. David Rose, University of California San Diego, La Jolla, Calif.
(§2) Ligands (VCAM-1, MAdCAM-1, fibronectin, or ICAM-1) in 50 μL of 50 mM Tris-HCl (pH 7.4), 150 mM NaCl, (TBS) were added to wells of a 96-well plate and allowed to coat overnight at 4° C. In order to maximize the window to evaluate agonist activity, a sub-optimal coating concentration of ligand was used. This ligand concentration corresponded approximately to that which would yield ≤5% adhesion as determined by dose-response curves of ligand binding to the appropriate cell type. All assays were performed as previously described. Briefly, 2×10^6 cells were labeled for 30 minutes with calcein-AM (Molecular Probes), washed, resuspended in binding buffer, and added to ligand-coated plates (2×10^5 cells/well) that had been blocked with 2% BSA. The binding buffer was PBS with 1 mM MgCl2 and 50% FBS (VCAM-1 and ICAM-1 assays) or TBS with 1 mM MnCl2 and 50% FBS (MAdCAM-1 and fibronectin assays). After a 30-minute incubation at 37° C., the plates were washed 3 times with the respective binding buffer (except without the serum), the adherent cells were lysed, and fluorescence was measured on a Tecan Safire^2 plate reader. Standard curves were run for each assay to convert fluorescence units to cell number. For each assay, the cells expressed the appropriate integrin receptor either endogenously (Jurkat/α4β1, K562/α5β1, Jurkat (a4-)/αLβ2, HSB/αLβ2) or in recombinant form (K562/α4β7). Generation of the recombinant K562 cell line has been described.

αLβ2 (LFA-1) = molecular target: T2, αLβ2 (LFA-1) (Homo sapiens, UniProt P05107+P20701); experiment: Static cell adhesion assay, αLβ2-mediated adhesion to ICAM-1; format: cell-based; settings: Jurkat (a4-) or HSB cells on sub-optimal ICAM-1 coating; PBS, 1 mM MgCl2, 50% FBS; read-out: Activity (EC50) in enhancing adhesion mediated by αLβ2 (LFA-1)
T2 construct: the cells expressed the appropriate integrin receptor either endogenously (Jurkat/α4β1, K562/α5β1, Jurkat (a4-)/αLβ2, HSB/αLβ2); endogenous in cells; host or cells: Jurkat (α4-) or HSB
T2 sequence (P20701 26-1170): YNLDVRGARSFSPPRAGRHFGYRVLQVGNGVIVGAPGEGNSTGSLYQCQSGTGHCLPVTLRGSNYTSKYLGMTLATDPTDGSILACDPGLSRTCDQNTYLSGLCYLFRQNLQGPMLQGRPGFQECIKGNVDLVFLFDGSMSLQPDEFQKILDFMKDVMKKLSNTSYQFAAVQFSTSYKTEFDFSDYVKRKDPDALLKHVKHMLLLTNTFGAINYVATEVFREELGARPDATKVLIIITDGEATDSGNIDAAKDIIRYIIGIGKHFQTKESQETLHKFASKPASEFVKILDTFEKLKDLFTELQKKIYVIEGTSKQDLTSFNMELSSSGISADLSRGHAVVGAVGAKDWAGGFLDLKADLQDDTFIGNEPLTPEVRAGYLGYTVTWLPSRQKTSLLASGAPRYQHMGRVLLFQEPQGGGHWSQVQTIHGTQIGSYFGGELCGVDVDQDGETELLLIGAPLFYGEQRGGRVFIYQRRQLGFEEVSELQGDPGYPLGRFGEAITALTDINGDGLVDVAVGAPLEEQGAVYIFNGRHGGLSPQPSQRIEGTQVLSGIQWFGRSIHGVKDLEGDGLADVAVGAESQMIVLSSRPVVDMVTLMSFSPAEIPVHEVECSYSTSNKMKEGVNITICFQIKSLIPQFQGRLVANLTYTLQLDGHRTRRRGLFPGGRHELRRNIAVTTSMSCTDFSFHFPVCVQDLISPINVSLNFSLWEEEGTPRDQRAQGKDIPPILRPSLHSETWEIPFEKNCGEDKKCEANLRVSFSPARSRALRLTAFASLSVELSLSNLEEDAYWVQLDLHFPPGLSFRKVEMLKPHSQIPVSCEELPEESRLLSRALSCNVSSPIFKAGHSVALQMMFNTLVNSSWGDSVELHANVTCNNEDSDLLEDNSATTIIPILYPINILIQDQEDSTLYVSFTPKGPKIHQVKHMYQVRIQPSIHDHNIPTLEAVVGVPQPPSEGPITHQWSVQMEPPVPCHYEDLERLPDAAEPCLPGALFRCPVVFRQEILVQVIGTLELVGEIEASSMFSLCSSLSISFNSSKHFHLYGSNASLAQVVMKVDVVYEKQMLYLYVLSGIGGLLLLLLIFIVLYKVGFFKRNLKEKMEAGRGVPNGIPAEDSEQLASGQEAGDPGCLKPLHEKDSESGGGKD
T2 sequence (P05107 23-769): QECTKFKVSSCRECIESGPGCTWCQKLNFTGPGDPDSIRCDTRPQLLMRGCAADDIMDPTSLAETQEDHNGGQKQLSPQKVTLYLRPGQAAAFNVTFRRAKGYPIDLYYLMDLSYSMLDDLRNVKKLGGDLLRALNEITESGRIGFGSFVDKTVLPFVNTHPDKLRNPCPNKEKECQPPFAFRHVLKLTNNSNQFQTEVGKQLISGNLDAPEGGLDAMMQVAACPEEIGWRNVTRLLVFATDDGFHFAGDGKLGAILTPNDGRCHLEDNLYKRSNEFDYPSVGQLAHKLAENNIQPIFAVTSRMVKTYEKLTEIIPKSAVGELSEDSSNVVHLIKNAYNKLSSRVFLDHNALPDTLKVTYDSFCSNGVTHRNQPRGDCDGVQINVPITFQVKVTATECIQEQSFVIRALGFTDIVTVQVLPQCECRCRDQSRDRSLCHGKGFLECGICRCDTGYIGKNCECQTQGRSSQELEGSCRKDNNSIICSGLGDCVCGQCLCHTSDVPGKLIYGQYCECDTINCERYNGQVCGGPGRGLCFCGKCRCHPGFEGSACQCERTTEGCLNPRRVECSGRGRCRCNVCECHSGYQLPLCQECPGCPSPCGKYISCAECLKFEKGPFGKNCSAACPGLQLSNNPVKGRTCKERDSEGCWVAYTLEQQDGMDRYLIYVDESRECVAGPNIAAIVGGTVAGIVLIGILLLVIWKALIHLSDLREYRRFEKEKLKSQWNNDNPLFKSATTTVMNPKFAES
Procedure: as §1, §2

K562 tumor target cells = experiment: NK cytotoxicity testing (NK cell cytolysis of tumor target cells); format: cell-based, human
Procedure: FIG. 1 depicts C4 enhancement of natural killer cell cytolysis of tumor target cells. Freshly isolated CD56+ natural killer cells were isolated from the peripheral blood of a healthy volunteer. Cells were either incubated with vehicle control (DMSO), or indicated concentrations of C4 for 4 h in the presence of tumor target cells (the erythroleukemic cell line K562). Data is presented as a percent increase in tumor cell killing.
FIG. 2 depicts the natural killer cell line NK-92, which was used at different effector to target ratios in the presence or absence of C4 (100 μM). Specific lysis of K562 cells is shown. All data are from triplicate determinations, and graphed as the mean+SD. […]
Human NK cells were purified from leukoreduction filters obtained from healthy volunteers using a CD56+ magnetic bead based enrichment column from Multenyi Biotech (as per manufacturer's instructions). Purified cells were routinely >90% CD56+ positive as measured by flow cytometry. […] After a 4 h incubation at 37° C., 5% CO2, culture supernatants were removed and liberated TDA (2,2′:6′,2″-terpyridine-6,6″-dicarboxylic acid) was detected by addition of DELFIA solution to form EuTDA, and fluorescence was measured on a Tecan Safire 2 multimodal plate reader. […] Results are expressed as the percent specific lysis, calculated as [(experimental signal−spontaneous release)/(total signal−spontaneous release).

Jurkat cells = experiment: SDF-1α mediated migration assay across VCAM-1 coated membranes; format: cell-based; settings: 4-hour incubation; *p<0.05 (FIG. 3A&B)
Procedure: (§3) FIGS. 3A&B depicts activity of C4 in enhancing SDF-1α mediated migration of Jurkat T cell, an exemplary activated T-cell, across membranes coated with either VCAM-1 or ICAM-1 (*p<0.05).
(§4) Migration assays were performed in […] pore size Transwells (24 well, Costar, Cambridge, Mass.). The upper chambers were pre-coated with […] VCAM-1 or 1 μg/mL ICAM-1 in […] TBS overnight at 4° C. and were then blocked with 2% BSA for 1 hour at room temperature. After washing with migration medium (RPMI-1640 supplemented with 1% FBS, 100 units/mL penicillin and 100 μg/mL streptomycin), upper chambers were loaded with 2×10^5 cells Jurkat cells (VCAM-1 assays) or Jurkat (a4-) cells (ICAM-1 assays) in 160 μL of migration medium. Lower chambers contained 600 μL of migration medium supplemented with 5 µg/mL (VCAM-1 assays) or 1 μg/mL (ICAM-1 assays) SDF-1α to induce chemotaxis. Jurkat cells were mixed with vehicle (1% DMSO) or C4 at the indicated concentrations immediately prior to being added to the upper chamber. After a 4-hour incubation at 37° C., 5% CO2, the upper chambers were removed, and cells in the lower chamber were collected and counted on a hemocytometer. Results are expressed as the total number of cells migrated.

Jurkat (a4-) cells = experiment: SDF-1α mediated migration assay across ICAM-1 coated membranes; format: cell-based; settings: 4-hour incubation, *p<0.05 (FIG. 3A&B)
Procedure: as §3, §4

B16-BL6 melanoma = experiment: Checkpoint blockade B16-BL6 melanoma model; format: in vivo, C57BL/6 mice; settings: C4 intratumorally 1 mg/kg twice weekly for 30 days from day 11
Procedure: C4 was tested in a B16-BL6 melanoma model to determine potential effects on the current checkpoint blockade therapy anti-CTLA-4. Briefly, thirty C57BL/6 were randomized into 3 groups (n=10). C4 was added to a regimen of GVAX®/anti-CTLA-4. Historically, these treatment regimens result in at best, a 20% tumor free survival. On day 0, B16-BL6 cells (2.5×10^4) were injected subcutaneously. GVAX®/anti-CTLA-4 (clone 9H10), or IgG controls, were administered on days 3, 6, and 9. On day 11, C4 treatment was initiated intratumorally twice weekly (1 mg/kg) for 30 days. Vehicle control was added to the IgG group.
The B16-BL6 therapeutic melanoma model is well described. Briefly, B16-BL6 cells (>90% viability) were be resuspended at 2.5×10^5 cells/ml in HBSS (4° C.). At day 0 (d0), C57BL/6 mice (4-6 wk old, female) were inoculated (subcutaneous, flank) with 2.5×10^4 cells (100 μL). At d3, appropriate groups received B16-GM-CSF vaccine (GVAX®). GVAX® preparation followed established procedures. Log-phase growth B16-GM-CSF cells were harvested as described above for B16-BL6 cells, but resuspended at 1×10^7 cells in HBSS (4° C.). Cells were irradiated (5000 rad) and injected into contralateral flanks (100 μL, […]). Also at d3, all animals received anti-CTLA-4 (mAb 9H10, BioXcell, 200 μg/animal, twice weekly). […] Animals were monitored daily for distress and survival was assessed twice daily. […]

EC50 (α4β1 (VLA-4)) [µM] | EC50 (αLβ2 (LFA-1)) [µM] | Structure (SMILES) | Killing (specific lysis) of K562 tumor target cells by NK-92 cell line (K562 tumor target cells; different effector to target ratios, C4 100 μM (FIG. 2)) | Killing of K562 tumor target cells by freshly isolated CD56+ NK cells (K562 tumor target cells; human NK cells from healthy volunteer, 4 h, with or without C4 (FIG. 1)) | SDF-1α mediated migration of Jurkat T cells across VCAM-1 coated membranes (Jurkat cells) | SDF-1α mediated migration of Jurkat T cells across ICAM-1 coated membranes (Jurkat (a4-) cells) | Long term tumor free survival on addition to GVAX/anti-CTLA-4 (in words) (B16-BL6 melanoma) | Median survival benefit on addition to GVAX/anti-CTLA-4 (in words) (B16-BL6 melanoma)
11 | 7 | COc1cccc(CN(Cc2cccc(OC)c2)C(=O)CCCCC(=O)N(Cc2cccc(OC)c2)Cc2cccc(OC)c2)c1 [Compound C3, N^1,N^1,N^6,N^6-tetrakis(3-methoxybenzyl)adipamide] |  |  |  |  |  | 
11 | 11 | COc1ccc(CN(Cc2ccc(OC)cc2)C(=O)CCCCC(=O)N(Cc2ccc(OC)cc2)Cc2ccc(OC)cc2)cc1 [Compound C2, N^1,N^1,N^6,N^6-tetrakis(4-methoxybenzyl)adipamide] |  |  |  |  |  | 
32 | 26 | CCCC[C@@H](COC(=O)N(Cc1cccs1)Cc1cccs1)NC(=O)N[C@@H](CC(=O)OC)c1ccc2c(c1)OCO2 [Compound C1, (6S,10S)-methyl 10-(1,3-benzodioxol-5-yl)-6-butyl-3,8-dioxo-1-(2-thienyl)-2-(2-thienylmethyl)-4-oxa-2,7,9-triazadodecan-12-oate] |  |  |  |  |  | 

Structure (SMILES) | EC50 (α4β1 (VLA-4)) [µM] | EC50 (αLβ2 (LFA-1)) [µM] | Killing (specific lysis) of K562 tumor target cells by NK-92 cell line (K562 tumor target cells; different effector to target ratios, C4 100 μM (FIG. 2)) | Killing of K562 tumor target cells by freshly isolated CD56+ NK cells (K562 tumor target cells; human NK cells from healthy volunteer, 4 h, with or without C4 (FIG. 1)) | SDF-1α mediated migration of Jurkat T cells across VCAM-1 coated membranes (Jurkat cells) | SDF-1α mediated migration of Jurkat T cells across ICAM-1 coated membranes (Jurkat (a4-) cells) | Long term tumor free survival on addition to GVAX/anti-CTLA-4 (in words) (B16-BL6 melanoma) | Median survival benefit on addition to GVAX/anti-CTLA-4 (in words) (B16-BL6 melanoma)
O=C(OCCOCCOCCOC(=O)N(Cc1cccs1)Cc1cccs1)N(Cc1cccs1)Cc1cccs1 [Compound C4, (ethane-1,2-diylbis(oxy))bis(ethane-2,1-diyl) bis(bis(thiophen-2-ylmethyl)carbamate)] | 14 | 11 | enhanced | enhanced | enhancing | enhancing | significant increase | significant median survival benefit
